PMC9919513, “A Practical Approach to Bicyclic Carbamoyl Pyridones with Application to the Synthesis of HIV-1 Integrase Strand Transfer Inhibitors” (Molecules, 2023)
Like-named read-outs stand apart in the source and are kept apart here.

Columns and labels:
[1] = tested on: HIV-1 vectors that carry WT IN; experiment: Single-round HIV-1 replication antiviral assay, wild-type IN; assay type: cell-based; conditions: for Ratio of the antiviral potencies after and before hydrogenation (WT): EC50 of saturated 7 over EC50 of unsaturated 6, WT IN; for EC50: Human immunodeficiency virus 1, HOS, 48 h, read-out: EC50, antiviral potency, WT IN, VSV-g-pseudotyped HIV-1 luciferase vector with WT IN, HOS cells, 48 h
Method: The bicyclic metal chelating carbamoyl pyridone moiety is common to second-generation tricyclic INSTIs (3, 4, and 5, Figure 1). Analogs of the current study are simplified analogs that lack a third ring. […] The halogen substitution pattern of the benzylamide moiety can affect inhibitory potencies of INSTIs. We determined the antiviral potencies of our compounds in single round HIV-1 replication assays using viral constructs with wild-type IN [31]. Cytotoxicities were determined as previously described. […] In general, the potencies of bicyclic analogs 6 having an unsaturated bond at the C4 position were insensitive to differences in N-methyl substituents. […] Analogs 6g and 6h represent simplified analogs of DTG (3) and CAB (5), respectively, in which the third ring (C-ring) is opened and having doble bond in B-ring, but lacking α-methyl stereochemistry.
Human embryonic kidney cell culture cell line 293 was acquired from the American Type Culture Collection (ATCC). The human osteosarcoma cell line, HOS, was obtained from Dr. Richard Schwartz (Michigan State University, East Lansing, MI, USA) and grown in Dulbecco’s modified Eagle’s medium (Invitrogen, Carlsbad, CA, USA) supplemented with 5% (v/v) fetal bovine serum, 5% newborn calf serum, and penicillin (50 units/mL) plus streptomycin (50 µg/mL; Quality Biological, Gaithersburg, MD, USA). The transfection vector, pNLNgoMIVR-ΔLUC was made from pNLNgoMIVR-ΔEnv.HSA by removing the HSA reporter gene and replacing it with a luciferase reporter gene between the NotI and XhoI restriction sites. To produce the new IN mutant S230N used in this study, the IN open reading frame was removed from pNLNgoMIVR-ΔENV.LUC by digestion with KpnI and SalI, and the resulting fragment was inserted between the KpnI and SalI sites of pBluescript KS+. Using that construct as the wild-type template, we prepared the following HIV-1 IN mutant S230N using the QuikChange II XL site-directed mutagenesis kit (Agilent Technologies, Santa Clara, CA, USA) protocol. The following sense oligonucleotides were used with matching cognate antisense oligonucleotides (not shown) (Integrated DNA Technologies, Coralville, IA, USA) in the mutagenesis: S230N 5′-[…]-3′. The DNA sequence of the IN mutant S230N construct was verified independently by DNA sequence determination. The mutated IN coding sequences from pBluescript KS+ were then subcloned into pNLNgoMIVR-ΔEnv.LUC (between the KpnI and SalI sites) to produce mutant HIV-1 constructs, which were also checked by DNA sequencing. […]. On the day prior to transfection, 293 cells were plated on 100 mm diameter dishes at a density of 1.5 × 10^6 cells per plate. Next, 293 cells were transfected with 16 µg of pNLNgoMIVR^-ΔLUC and 4 µg of pHCMV-g (obtained from Dr. Jane Burns, University of California, San Diego) using the calcium phosphate method. At approximately 6 h after the calcium phosphate precipitate was added, 293 cells were washed twice with phosphate-buffered saline (PBS) and incubated with fresh media for 48 h. The virus-containing supernatants were then harvested, clarified by low-speed centrifugation, filtrated, and diluted for preparation in antiviral infection assays. On the day prior to the screen, HOS cells were seeded in a 96-well luminescence cell culture plate at a density of 4000 cells in 100 µL per well. On the day of the screen for cellular cytotoxicity determination, cells were treated with compounds from a concentration range of 250 µM to 0.05 µM and then incubated at 37 °C for 48 h. On the day of the screen for antiviral activity infection assays, cells were treated with compounds from a concentration range of 5 µM to 0.0001 µM using 11 serial dilutions and then incubated at 37 °C for 3 h. After compound incorporation and activation in the cell, 100 µL of virus-stock (WT or mutant) diluted to achieve a luciferase signal between 0.2 and 1.5 Relative Luciferase Units (RLUs) was added to each well and further incubated at 37 °C for 48 h. […]

[2] = tested on: HIV-1 vectors bearing the S230N IN mutant; experiment: Single-round HIV-1 replication antiviral assay, S230N IN mutant; assay type: cell-based
From the text: To further evaluate the antiviral activities of select compounds, we determined their EC50 values against the IN mutant S230N, which has been selected in vitro against an early Merck INSTI L810,830, a prototype for naphthyridine analogs.
(§1) Human embryonic kidney cell culture cell line 293 was acquired from the American Type Culture Collection (ATCC). The human osteosarcoma cell line, HOS, was obtained from Dr. Richard Schwartz (Michigan State University, East Lansing, MI, USA) and grown in Dulbecco’s modified Eagle’s medium (Invitrogen, Carlsbad, CA, USA) supplemented with 5% (v/v) fetal bovine serum, 5% newborn calf serum, and penicillin (50 units/mL) plus streptomycin (50 µg/mL; Quality Biological, Gaithersburg, MD, USA). The transfection vector, pNLNgoMIVR-ΔLUC was made from pNLNgoMIVR-ΔEnv.HSA by removing the HSA reporter gene and replacing it with a luciferase reporter gene between the NotI and XhoI restriction sites. To produce the new IN mutant S230N used in this study, the IN open reading frame was removed from pNLNgoMIVR-ΔENV.LUC by digestion with KpnI and SalI, and the resulting fragment was inserted between the KpnI and SalI sites of pBluescript KS+. Using that construct as the wild-type template, we prepared the following HIV-1 IN mutant S230N using the QuikChange II XL site-directed mutagenesis kit (Agilent Technologies, Santa Clara, CA, USA) protocol. The following sense oligonucleotides were used with matching cognate antisense oligonucleotides (not shown) (Integrated DNA Technologies, Coralville, IA, USA) in the mutagenesis: S230N 5′-[…]-3′. The DNA sequence of the IN mutant S230N construct was verified independently by DNA sequence determination. The mutated IN coding sequences from pBluescript KS+ were then subcloned into pNLNgoMIVR-ΔEnv.LUC (between the KpnI and SalI sites) to produce mutant HIV-1 constructs, which were also checked by DNA sequencing. […]. On the day prior to transfection, 293 cells were plated on 100 mm diameter dishes at a density of 1.5 × 10^6 cells per plate. Next, 293 cells were transfected with 16 µg of pNLNgoMIVR^-ΔLUC and 4 µg of pHCMV-g (obtained from Dr. Jane Burns, University of California, San Diego) using the calcium phosphate method. At approximately 6 h after the calcium phosphate precipitate was added, 293 cells were washed twice with phosphate-buffered saline (PBS) and incubated with fresh media for 48 h. The virus-containing supernatants were then harvested, clarified by low-speed centrifugation, filtrated, and diluted for preparation in antiviral infection assays. On the day prior to the screen, HOS cells were seeded in a 96-well luminescence cell culture plate at a density of 4000 cells in 100 µL per well. On the day of the screen for cellular cytotoxicity determination, cells were treated with compounds from a concentration range of 250 µM to 0.05 µM and then incubated at 37 °C for 48 h. On the day of the screen for antiviral activity infection assays, cells were treated with compounds from a concentration range of 5 µM to 0.0001 µM using 11 serial dilutions and then incubated at 37 °C for 3 h. After compound incorporation and activation in the cell, 100 µL of virus-stock (WT or mutant) diluted to achieve a luciferase signal between 0.2 and 1.5 Relative Luciferase Units (RLUs) was added to each well and further incubated at 37 °C for 48 h. Cellular cytotoxicity was measured by using the ATP Lite Luminescence detection system and monitored by adding 50 µL of cell lysis buffer from the Luminescence ATP detection assay to each well followed by mixing at 700 rpm at room temperature for 5 min using a compact thermomixer. […]

in vitro = assay type: cell-based; conditions: human, HOS cells, 48 h; read-out: CC50, cytotoxic concentration resulting in 50% reduction in the level of ATP
Method: as §1, with “thermomixer. After addition of 50 µL of reconstituted Luminescence ATP detection assay reagent to all wells except for the negative control/background wells, the plates were mixed at 700 rpm at room temperature for 5 min using a compact thermomixer, incubated at room temperature for 20 min to allow time for signal development, and finally, cytotoxicity was determined using the microplate reader. Infectivity was measured by using the Steady-lite plus luminescence reporter gene assay system (PerkinElmer, Waltham, MA, USA).” for “thermomixer.”

[3] = tested on: HIV-1 vectors bearing the S230N IN mutant; conditions: single round infection assays, read-out: EC50 against the S230N IN mutant; cited from earlier work

Structure (SMILES)	melting point	Ratio of the antiviral potencies after and before hydrogenation (WT) [1]	EC50 [1]	Ratio of the antiviral potencies after and before hydrogenation (S230N) ([2]; EC50 of saturated 7 over EC50 of unsaturated 6, S230N IN)	EC50 ([2]; Human immunodeficiency virus 1, HOS, 48 h, read-out: EC50, antiviral potency, S230N IN mutant)	CC50 (in vitro)	EC50 [3]
O=C(NCc1ccc(F)cc1F)c1cn2c(c(O)c1=O)C(=O)N(CCCCCO)CC2 [Compound 7d, N-(2,4-Difluorobenzyl)-9-hydroxy-2-(5-hydroxypentyl)-1,8-dioxo-1,3,4,8-tetrahydro-2H-pyrido [1,2-a]pyrazine-7-carboxamide]	201 to 207 °C	5.0	54.5 ± 3 nM	6.29	97 nM		
CC(C)CC(C)N1CCn2cc(C(=O)NCc3ccc(F)cc3F)c(=O)c(O)c2C1=O (centres unmarked) [Compound 7i, N-(2,4-Difluorobenzyl)-9-hydroxy-2-(4-methylpentan-2-yl)-1,8-dioxo-1,3,4,8-tetrahydro-2H-pyrido [1,2-a]pyrazine-7-carboxamide]	190 to 192 °C	1.4	6 ± 1.2 nM			> 250000 nM	
C[C@@H]1CCO[C@H]2Cn3cc(C(=O)NCc4ccc(F)cc4F)c(=O)c(O)c3C(=O)N12 [DTG, Dolutegravir, reference compound]			~2 nM				7.9 ± 1.3 nM
